Laboratory results as given in article PMC11098465, “A comparative analysis of peptide-delivered antisense antibiotics using diverse nucleotide mimics” (RNA, 2024).

Test system: Salmonella outer membrane
Assay: Outer membrane permeabilization (NPN fluorescence)
Assay type: cell-based, Salmonella enterica serovar Typhimurium strain SL1344
Settings: KFF-ASOs 10 µM, CTAB 10 µM, PMXB 0.4 µM; added after 14 min
Text: Because the negASOs are ineffective in bacterial cells despite their activity in cell-free systems, we investigated if these ASOs affected the ability of the KFF carrier peptide to induce OM permeabilization. Therefore, we used the hydrophobic fluorophore N-phenylnaphthylamine (NPN), a dye that turns fluorescent after binding to hydrophobic regions within cell membranes. This only occurs in cells with a compromised OM ([Ghosh et al. 2016]; [Ellis et al. 2019]). […] However, when conjugated to negASOs, the KFF carrier is unable to permeabilize the OM (Fig. 10). This could potentially be due to electrostatic interactions between the negASOs and the positively charged KFF.
The experiments were performed by modifying previously published protocols ([Ghosh et al. 2016]; [Ellis et al. 2019]; [Zheng et al. 2021]). Salmonella (WT SL1344, JVS-1574) were grown overnight in 4 mL MHB medium at 37°C (with shaking at 220 rpm). Then the culture was diluted 1:100 and grown until OD600 0.5 (∼2 × 10^8 cfu/mL). This culture was harvested and washed two times with 5 mM HEPES and further diluted to OD600 0.2 in 5 mM HEPES supplemented with 5 mM Glucose (pH 7.2). These cells were then incubated with NPN (Sigma) at a final concentration of 10 µM. One hundred and ninety microliters of NPN-treated cells were transferred into 96-well back plates with transparent bottoms and fluorescence (excitation = 350 nm, emission = 420 nm) was recorded for 60 min (reading was performed every minute) using a Synergy H1 plate reader (Biotek). On the 14th minute, 10 µL of the test compounds (10 µM final concentration) was added into the wells. CTAB (Sigma) 10 µM (final concentration) or PMXB (Sigma) (final concentration of 0.4 µM) were used as positive controls, while water was used as negative control. The fluorescence of the wells was monitored using the same settings as above. The plots were created using OrginPro 2023. The experiment was performed twice and Figure 10 is a representative example of two independent experiments.

Molecule	Outer membrane permeabilization, NPN fluorescence (in words)
CCCCCCCCCCCCCCCC[N+](C)(C)C.[Br-] [CTAB, reference compound]	cause a rapid increase in fluorescence
Polymyxin B [reference compound]	cause a rapid increase in fluorescence
